# Results as given in patent US20250270445A1, “COMPOUNDS AND USES THEREOF IN FIELD OF OPTOELECTRONICS” (Zhejiang Brilliant Optoelectronic Technology Co.,Ltd., priority 2022, published 2025).
# Experiments:
# Format in all cases: physicochemical
# [1] = Absorption and emission spectrum in spin-coated film; details: spin-coated film
# Experimental: The absorption and emission spectrums of the compounds in the film were determined as follows: • 1. The compound with a certain concentration in the toluene was prepared. • 2. The prepared toluene solution was dropped onto a clean glass substrate. • 3. Spin-coating, and then heating at the 80° C. for 1 min. • 4. The absorption spectrum of the film was measured by using an ultraviolet-visible spectrophotometer (Puxi T9s) to obtain the absorption peak wavelength. • 5. The emission spectrum of the film was measured by using a fluorescent spectroscope (Hitachi, F-4700 FL Spectrophotometer) to obtain the emission peak wavelength.
# [2] = Absorption spectrum, emission spectrum and extinction coefficient in toluene solution
# Experimental: The extinction coefficients of the compounds and their absorption and emission spectrums in the solution were determined as follows: • 1. The compound with a certain amount of substance concentration in the toluene was prepared in a volumetric flask. • 2. The absorption spectrum of the solution was measured by using an ultraviolet-visible spectrophotometer (Puxi T9s) to obtain the absorption peak wavelength. • 3. The absorbance of the maximum absorption peak divided by the amount of substance concentration is the molar extinction coefficient of the compound. • 4. The emission spectrum of the solution was measured by using a fluorescent spectroscope (Hitachi, F-4700 FL Spectrophotometer) to obtain the emission peak wavelength.
# [3] = UV stability of compounds in toluene (absorbance decay to 80%); details: 1×10^−5 mol/L in toluene, UV LEDs 365 nm & 255 nm, time to 80% absorbance, normalized to comparative compound 2 as 100%
# Experimental: The compound was dissolved in the toluene with a concentration of 1×10^−5 mol/L. 3 mL solution was added to the cuvette with a lid and the lid was screwed on tightly, then the cuvette was placed in the ultraviolet-visible spectrophotometer to test the absorption spectrum, the absorbance of the maximum absorption peak was recorded as the initial value. The cuvette was placed at a distance of 12 cm from the UV LEDs (365 nm & 255 nm), irradiated for a period and tested its absorption spectrum, then continued to be irradiated after the test, and repeated until the absorbance decayed to 80% of its initial value, the time was recorded as t80.
# [4] = Solubility of compounds in toluene
# Experimental: The solubility of the compounds in the toluene were determined as follows: • 1. 1000 mg of toluene solution was placed in the transparent glass sample bottle. • 2. A certain mass of the compound was added into the toluene, and oscillated until completely dissolved. • 3. After the compound was completely dissolved, a certain mass of the compound was further added into the toluene, and oscillated. • 4. The above steps were repeated until the compound wasn't dissolved any more. • 5. The total mass of the compound added was recorded and the solubility was obtained by calculation.
# [5] = Blue light stability of the film (luminance decay); details: about 800 nm evaporated film, blue LED 460 nm, 3000 cd/m^2, versus comparative compound 1
# Experimental: A film about 800 nm was evaporated, encapsulated with a glass cover plate, then placed at 2.5 cm above the blue LED (460 nm, 3000 cd/m^2) to test the luminance value with a luminance meter (Fstar, CS-2000A). The luminance value of the first test was recorded as the initial value, and the luminance was tested by irradiating for a period of time to obtain the luminance decay curve, see FIG. 34.
compound,measurement,setting,value
CCc1cccc(CC)c1N(c1cc(C(C)(C)C)cc(C(C)(C)C)c1)c1cc(N(c2cc(C(C)(C)C)cc(C(C)(C)C)c2)c2c(CC)cccc2CC)c2ccc3c(N(c4cc(C(C)(C)C)cc(C(C)(C)C)c4)c4c(CC)cccc4CC)cc(N(c4cc(C(C)(C)C)cc(C(C)(C)C)c4)c4c(CC)cccc4CC)c4ccc1c2c43 [compound 8],Absorption peak of the film,[1],482 nm
same,Emission peak of the film,[1],499 nm
same,Absorption peak of the toluene solution,[2],484 nm
same,Emission peak of the toluene solution,[2],501 nm
same,Molar extinction coefficient of the toluene solution,[2]; maximum absorption peak,5.3 × 10^4 L · mo 1^−1
same,Times t80,[3],261%
same,"Solubilities(/100 g, toluene)",[4],30.1 g/100 g toluene
same,stability of the film under blue-light illumination (luminance decay),[5],obviously improved UV stability
